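Each compound was tested at five concentrations against cells in 96-well plates for 48 hours. TGI denotes the concentration required for complete inhibition of growth.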
Experiments:
Assay in all cases: NCI-60 cell line screen, 48 h
[1] = tested on: CCRF-CEM leukemia
[2] = tested on: SF-295 CNS
[3] = tested on: K-562 leukemia
[4] = tested on: MCF7 breast
[5] = tested on: HOP-92 NSCLC
[6] = tested on: HCT-116 colon
[7] = tested on: HS 578T breast
[8] = tested on: A549 NSCLC
[9] = tested on: SK-MEL-5 melanoma
[10] = tested on: HCT-15 colon
[11] = tested on: SR leukemia
[12] = tested on: SF-539 CNS
[13] = tested on: DU-145 prostate
[14] = tested on: OVCAR-3 ovarian
[15] = tested on: SNB-75 CNS
[16] = tested on: IGROV1 ovarian
[17] = tested on: TK-10 renal
[18] = tested on: MALME-3M melanoma
[19] = tested on: HOP-62 NSCLC
[20] = tested on: SK-OV-3 ovarian
[21] = tested on: MDA-N
[22] = tested on: MOLT-4 leukemia
[23] = tested on: LOX IMVI melanoma
[24] = tested on: OVCAR-5 ovarian
[25] = tested on: UACC-62 melanoma
[26] = tested on: U251 CNS
[27] = tested on: SW-620 colon
[28] = tested on: OVCAR-8 ovarian
[29] = tested on: SN12C renal
[30] = tested on: A498 renal
[31] = tested on: NCI-H522 lung
[32] = tested on: CAKI-1 renal
[33] = tested on: UACC-257 melanoma
[34] = tested on: KM12 colon
[35] = tested on: BT-549 breast
[36] = tested on: HT29 colon
[37] = tested on: RXF 393 renal
[38] = tested on: MDA-MB-435
[39] = tested on: SF-268 CNS
[40] = tested on: HCC-2998 colon
[41] = tested on: PC-3 prostate
[42] = tested on: SK-MEL-28 melanoma
[43] = tested on: COLO 205 colon
[44] = tested on: NCI-H23 lung
[45] = tested on: NCI/ADR-RES ovarian
[46] = tested on: 786-0 renal
[47] = tested on: MDA-MB-231 breast
[48] = tested on: EKVX NSCLC
[49] = tested on: RPMI-8226 leukemia
[50] = tested on: UO-31 renal
[51] = tested on: SK-MEL-2 melanoma
[52] = tested on: ACHN renal
[53] = tested on: HL-60(TB) leukemia
[54] = tested on: M14 melanoma
[55] = tested on: T-47D breast
[56] = tested on: SNB-19 CNS
[57] = tested on: NCI-H460 lung
[58] = tested on: M19-MEL melanoma
[59] = tested on: KM20L2 colon
[60] = tested on: DLD-1 colon
[61] = tested on: LXFL 529 NSCLC
[62] = tested on: DMS 273 small cell lung
[63] = tested on: OVCAR-4 ovarian
[64] = tested on: NCI-H226 lung

O=[N+]([O-])c1ccc2sc(C=Nc3cnccn3)cc2c1
TGI [1]: 40.4 µM | TGI [2]: > 100 µM | TGI [3]: 88.6 µM | TGI [4]: > 100 µM | TGI [5]: > 100 µM | TGI [6]: > 100 µM | TGI [7]: 49.5 µM | TGI [8]: > 100 µM | TGI [9]: > 100 µM | TGI [10]: > 100 µM | TGI [11]: 45.5 µM | TGI [12]: > 100 µM | TGI [13]: > 100 µM | TGI [14]: > 100 µM | TGI [15]: 63.5 µM | TGI [16]: > 100 µM | TGI [17]: > 100 µM | TGI [18]: > 100 µM | TGI [19]: > 100 µM | TGI [20]: > 100 µM | TGI [21]: > 100 µM | TGI [22]: 34.3 µM | TGI [23]: 60.6 µM | TGI [24]: > 100 µM | TGI [25]: 53.1 µM | TGI [26]: > 100 µM | TGI [27]: > 100 µM | TGI [28]: > 100 µM | TGI [29]: > 100 µM | TGI [30]: 86 µM | TGI [31]: > 100 µM | TGI [32]: > 100 µM | TGI [33]: > 100 µM | TGI [34]: > 100 µM | TGI [35]: > 100 µM | TGI [36]: > 100 µM | TGI [37]: 33.5 µM | TGI [38]: > 100 µM | TGI [39]: > 100 µM | TGI [40]: 40.7 µM | TGI [41]: > 100 µM | TGI [42]: > 100 µM | TGI [43]: > 100 µM | TGI [44]: > 100 µM | TGI [45]: > 100 µM | TGI [46]: > 100 µM | TGI [47]: > 100 µM | TGI [48]: > 100 µM | TGI [49]: 52.9 µM | TGI [50]: > 100 µM | TGI [51]: 75.2 µM | TGI [52]: > 100 µM | TGI [53]: 43.8 µM | TGI [54]: > 100 µM | TGI [55]: 28 µM | TGI [56]: > 100 µM | TGI [57]: > 100 µM

Cc1ccc(C(N)=O)cc1N=NN(C)C
TGI [2]: > 100 µM | TGI [58]: > 100 µM | TGI [5]: > 100 µM | TGI [59]: > 100 µM | TGI [8]: > 100 µM | TGI [9]: > 100 µM | TGI [10]: > 100 µM | TGI [60]: > 100 µM | TGI [14]: > 100 µM | TGI [16]: > 100 µM | TGI [17]: > 100 µM | TGI [19]: > 100 µM | TGI [20]: > 100 µM | TGI [61]: > 100 µM | TGI [23]: > 100 µM | TGI [25]: > 100 µM | TGI [26]: > 100 µM | TGI [27]: > 100 µM | TGI [28]: > 100 µM | TGI [29]: > 100 µM | TGI [62]: > 100 µM | TGI [31]: > 100 µM | TGI [32]: > 100 µM | TGI [33]: > 100 µM | TGI [34]: > 100 µM | TGI [36]: > 100 µM | TGI [63]: > 100 µM | TGI [39]: > 100 µM | TGI [40]: > 100 µM | TGI [42]: > 100 µM | TGI [43]: > 100 µM | TGI [44]: > 100 µM | TGI [46]: > 100 µM | TGI [48]: > 100 µM | TGI [50]: > 100 µM | TGI [51]: > 100 µM | TGI [52]: > 100 µM | TGI [54]: > 100 µM | TGI [56]: > 100 µM | TGI [57]: > 100 µM

CC(C)CCCC(C)[C@H]1CCC2[C@@H]3CCC4Cc5nc6c(nc5C[C@]4(C)C3CC[C@@]21C)CC1CC[C@@H]2C(CC[C@@]3(C)C2CC[C@@H]3C(C)CCCC(C)C)[C@@]1(C)C6 (some centres undefined)
TGI [1]: > 100 µM | TGI [2]: > 100 µM | TGI [3]: > 100 µM | TGI [4]: > 100 µM | TGI [5]: > 100 µM | TGI [6]: > 100 µM | TGI [7]: > 100 µM | TGI [8]: > 100 µM | TGI [9]: > 100 µM | TGI [10]: > 100 µM | TGI [11]: > 100 µM | TGI [12]: > 100 µM | TGI [13]: > 100 µM | TGI [14]: > 100 µM | TGI [64]: > 100 µM | TGI [15]: > 100 µM | TGI [16]: > 100 µM | TGI [17]: > 100 µM | TGI [18]: > 100 µM | TGI [19]: > 100 µM | TGI [20]: > 100 µM | TGI [21]: > 100 µM | TGI [22]: > 100 µM | TGI [23]: > 100 µM | TGI [24]: > 100 µM | TGI [25]: > 100 µM | TGI [26]: > 100 µM | TGI [27]: > 100 µM | TGI [28]: > 100 µM | TGI [29]: > 100 µM | TGI [30]: > 100 µM | TGI [33]: > 100 µM | TGI [34]: > 100 µM | TGI [35]: > 100 µM | TGI [36]: > 100 µM | TGI [37]: > 100 µM | TGI [63]: > 100 µM | TGI [38]: > 100 µM | TGI [39]: > 100 µM | TGI [41]: > 100 µM | TGI [42]: > 100 µM | TGI [43]: > 100 µM | TGI [44]: > 100 µM | TGI [45]: > 100 µM | TGI [46]: > 100 µM | TGI [47]: > 100 µM | TGI [48]: > 100 µM | TGI [49]: > 100 µM | TGI [50]: > 100 µM | TGI [51]: > 100 µM | TGI [52]: > 100 µM | TGI [53]: > 100 µM | TGI [54]: > 100 µM | TGI [55]: > 100 µM | TGI [56]: > 100 µM | TGI [57]: > 100 µM

O=C1NC(=O)C(C(CC(=O)c2ccc([N+](=O)[O-])cc2)c2ccccc2)C(=O)N1 (centres undefined)
TGI [1]: > 100 µM | TGI [2]: 54.9 µM | TGI [3]: > 100 µM | TGI [4]: 27 µM | TGI [5]: > 100 µM | TGI [6]: 28 µM | TGI [7]: 31.7 µM | TGI [8]: > 100 µM | TGI [9]: > 100 µM | TGI [10]: > 100 µM | TGI [11]: > 100 µM | TGI [12]: > 100 µM | TGI [13]: > 100 µM | TGI [14]: > 100 µM | TGI [64]: > 100 µM | TGI [15]: > 100 µM | TGI [16]: > 100 µM | TGI [17]: 7.73 µM | TGI [18]: 42.9 µM | TGI [19]: > 100 µM | TGI [20]: > 100 µM | TGI [21]: > 100 µM | TGI [22]: > 100 µM | TGI [23]: 38.7 µM | TGI [24]: > 100 µM | TGI [25]: > 100 µM | TGI [26]: > 100 µM | TGI [27]: > 100 µM | TGI [28]: > 100 µM | TGI [29]: > 100 µM | TGI [30]: > 100 µM | TGI [31]: > 100 µM | TGI [33]: > 100 µM | TGI [34]: 30.4 µM | TGI [35]: > 100 µM | TGI [36]: > 100 µM | TGI [37]: 55.8 µM | TGI [63]: > 100 µM | TGI [38]: > 100 µM | TGI [39]: > 100 µM | TGI [41]: > 100 µM | TGI [42]: > 100 µM | TGI [43]: > 100 µM | TGI [44]: 95.1 µM | TGI [45]: > 100 µM | TGI [46]: > 100 µM | TGI [47]: > 100 µM | TGI [49]: > 100 µM | TGI [50]: > 100 µM | TGI [51]: > 100 µM | TGI [52]: > 100 µM | TGI [53]: > 100 µM | TGI [54]: > 100 µM | TGI [55]: 67 µM | TGI [56]: > 100 µM | TGI [57]: > 100 µM

— PubChem BioAssay (NCI)
